Results published in article PMC11858513, “Antibiofilm Activities of Tritrpticin Analogs Against Pathogenic Pseudomonas aeruginosa PA01 Strains” (Molecules, 2025).
Converted amounts (≈) assume the structure as drawn. Residues, ends and D or L forms follow the SMILES beside them.

Legend:
P. aeruginosa PAO1 GFP [1] = test: MIC against planktonic cells, absorbance at 600 nm; type: cell-based, Pseudomonas aeruginosa; settings: Table 2, BM2 medium, absorbance 600 nm, mean of three biological replicates
Description: (§1) Figure 1 The MIC (A), MBIC (B) and MBEC (C) values for the tritrpticin analog peptides were assessed against Pa PAO1 GFP. The MIC values were determined by measuring the absorbance of bacterial cells at 600 nm. The MBIC and MBEC values were determined by recording the fluorescence at 480 nm and 530 nm from the biofilms of GFP-expressing PAO1. Three biological replicates were run for each test sample, and the mean was calculated for the recorded absorption or fluorescence values. In the graphs, the error bars represent the standard deviation (±SD).
(§2) Figure 2 The MIC (A), MBIC (B) and MBEC (C) values for the tritrpticin-Lys derivative peptides were assessed against Pa PAO1 GFP. The MIC values were determined by measuring the absorbance of bacterial cells at 600 nm. The MBIC and MBEC values were determined by recording the fluorescence at 480 nm and 530 nm from the biofilms of GFP-expressing PAO1. Three replicates were run for each sample, the values were averaged and the error bars represent the standard deviation (±SD).
(§3) The methods to determine the MIC, MBIC and MBEC have been described in detail in our previous publication. The green fluorescent protein (GFP)-producing P. aeruginosa and S. aureus strains that were used in this work were also described in the earlier publication. Fluorescence detection was used as the main method to estimate the number of cells entrapped in the biofilm matrix. The methodology used for evaluation of the antibiofilm properties against an original Pseudomonas PA01 strain by crystal violet dye staining and the use of the Calgary biofilm device has been described elsewhere. The regular PA01 strain was provided by Dr. J. Harrison, Calgary. All measurements were carried out on an Eppendorf AF2200 plate reader. Every 96-well plate included controls for bacterial cell growth without peptide treatment and media alone. All measurements were carried out in triplicate, and the values in the figures represent the average and the error bars are standard deviation.

P. aeruginosa PAO1 GFP [2] = test: MBIC, prevention of biofilm formation, GFP fluorescence method; type: cell-based, Pseudomonas aeruginosa; settings: Table 2, BM2 medium, mean of three biological replicates
Description: as §1, §2, §3

P. aeruginosa PAO1 GFP [3] = test: MBEC, biofilm eradication, GFP fluorescence method; type: cell-based, Pseudomonas aeruginosa; settings: Table 2, BM2 medium, mean of three biological replicates
Description: as §1, §2, §3

S. aureus GFP [4] = test: MIC against planktonic cells, absorbance at 600 nm; type: cell-based, Staphylococcus aureus; settings: Table 4; Sa GFP, 10% TSB and 0.1% glucose; absorbance 600 nm; mean of three biological replicates
Description: (§4) Figure 3 The MIC (A), MBIC (B) and MBEC (C) values for the tritrpticin analog peptides were assessed against Sa GFP. The MIC values were determined by measuring the absorbance of bacterial cells at 600 nm. The MBIC and MBEC values were determined by recording the fluorescence at 480 nm and 530 nm from the biofilms of GFP-expressing Sa. Three biological replicates were run for each test sample, and the mean was calculated for the recorded absorption or fluorescence values. In the graphs, the error bars represent the standard deviation (±SD).
as §3

S. aureus GFP [5] = test: MBIC, GFP fluorescence method; type: cell-based, Staphylococcus aureus; settings: Table 4, Sa GFP, 10% TSB and 0.1% glucose, mean of three biological replicates
Description: as §4, §3

S. aureus GFP [6] = test: MBEC, GFP fluorescence method; type: cell-based, Staphylococcus aureus; settings: Table 4, Sa GFP, 10% TSB and 0.1% glucose, mean of three biological replicates
Description: as §4, §3

S. aureus GFP [7] = type: cell-based, Staphylococcus aureus; settings: Table 4; Sa GFP; lowest concentration of peptide with no bacterial growth seen on the spot agar plate
From the text: as §3

P. aeruginosa PAO1 [8] = type: cell-based, Pseudomonas aeruginosa; settings: Table 5; regular PAO1 (no GFP), 1x BM2; absorbance 600 nm; mean of three biological replicates
Description: (§5) Figure 4 The MIC (A), MBIC (B) and MBRC (C) values for the peptides were assessed against P. aeruginosa PAO1 in the presence of 1× BM2. The inhibition of planktonic cells, the inhibition of biofilm cells and the reduction in biofilm cells were determined for the peptides by recording of the planktonic cells at 600 nm and quantification of biofilms formed by Pa PAO1 using crystal violet at 595 nm, respectively. Three biological replicates were run for each test sample, and the mean was calculated for the recorded absorption values. Data points with error bars indicate the standard deviation (±SD).
(§6) Figure 6 The MIC (A), MBIC (B) and MBEC (C) values for the tritrpticin-Lys derivatives against P. aeruginosa PAO1 were assessed by the crystal violet (CV) assay for the measurement of inhibition of biofilm formation and eradication of biofilm cells, respectively. The biofilm cells were rinsed, stained with 0.1% crystal violet for 15 min and then rinsed again. The CV was released from biofilm cells by the addition of 95% ethanol and quantified by reading on a spectrometer at 595 nm. Three replicates were run for each sample, the values were averaged and the error bars represent the standard deviation (±SD).
as §3

P. aeruginosa PAO1 [9] = type: cell-based; settings: Table 5, PAO1, 1x BM2, crystal violet at 595 nm, mean of three biological replicates
Description: (§7) We note the close agreement with the MBIC and MBEC values determined by the fluorescence and CV methods, similar to what we found in our previous work for an S. aureus MRSA strain [23]. We also re-evaluated the MBEC values that are measured using the Calgary biofilm device (CBD), where biofilms form on pegs, rather than at the bottom of the 96-well plates. […] In particular, we find that the single Pro9Ala Tritrp-P9A-substituted version has better MIC, MBIC and MBEC activities than the parent peptide as well as the Tritrp-P59A analog with both prolines substituted to Ala.
as §5, §6, §3

P. aeruginosa PAO1 [10] = type: cell-based, Pseudomonas aeruginosa; settings: Table 5; PAO1, 1x BM2; biofilms on pegs, cells plated and counted; three biological replicates
Description: as §7
Figure 5 The MBEC values for the peptides were assessed against P. aeruginosa PAO1 in the presence of 1× BM2 medium. The eradication of biofilm cells was determined for the peptides using the counting of biofilm cells formed by Pa PAO1. Three biological replicates were run for each test sample, and the mean was calculated for counted cell values. Data points with error bars indicate the standard deviation (±SD).
as §3

[11] = minimum biofilm reduction concentration

CC(C)[C@H](NC(=O)[C@@H]1CCCN1C(=O)[C@@H](N)Cc1ccccc1)C(=O)N[C@H](C(=O)N[C@@H](Cc1c[nH]c2ccccc12)C(=O)N[C@@H](CCCNC(=N)N)C(=O)N[C@@H](Cc1c[nH]c2ccccc12)C(=O)N[C@@H](Cc1c[nH]c2ccccc12)C(=O)N[C@@H](CCCNC(=N)N)C(=O)N[C@@H](Cc1c[nH]c2ccccc12)C(=O)N[C@@H](Cc1c[nH]c2ccccc12)C(=O)N[C@@H](CCCNC(=N)N)C(=O)NCC(N)=O)[C@@H](C)O [PuroA-Arg, reference compound] (H-FPVTWRWWRWWRG-NH2)
MIC at 600 nm LD50 (P. aeruginosa PAO1 GFP [1]): 8 µM (≈ 15.3 µg/mL) | MIC at 600 nm LD90 (P. aeruginosa PAO1 GFP [1]): 16 µM (≈ 30.7 µg/mL) | MBIC at 488 and 530 nm LD50 (P. aeruginosa PAO1 GFP [2]): 8 µmol/L | MBIC at 488 and 530 nm LD90 (P. aeruginosa PAO1 GFP [2]): 8 µmol/L | MBEC at 488 and 530 nm LD50 (P. aeruginosa PAO1 GFP [3]): 32 µmol/L | MBEC at 488 and 530 nm LD90 (P. aeruginosa PAO1 GFP [3]): 128 µmol/L | MIC at 600 nm LD50 (S. aureus GFP [4]): 4 µM (≈ 7.67 µg/mL) | MIC at 600 nm LD90 (S. aureus GFP [4]): 4 µM (≈ 7.67 µg/mL) | MBIC at 488 and 530 nm LD50 (S. aureus GFP [5]): 4 µmol/L | MBIC at 488 and 530 nm LD90 (S. aureus GFP [5]): 4 µmol/L | MBEC at 488 and 530 nm LD50 (S. aureus GFP [6]): 8 µmol/L | MBEC at 488 and 530 nm LD90 (S. aureus GFP [6]): 16 µmol/L | MBC Agar Plate (S. aureus GFP [7]): 8 µM (≈ 15.3 µg/mL) | MIC at 600 nm LD50 (P. aeruginosa PAO1 [8]): 8 µM (≈ 15.3 µg/mL) | MIC at 600 nm LD90 (P. aeruginosa PAO1 [8]): 16 µM (≈ 30.7 µg/mL) | MBIC (CV at 595 nm) LD50 (P. aeruginosa PAO1 [9]): 16 µmol/L | MBIC (CV at 595 nm) LD90 (P. aeruginosa PAO1 [9]): 16 µmol/L | MBRC (CV at 595 nm) LD50 (P. aeruginosa PAO1 [9]; [11]): 32 µmol/L | MBRC (CV at 595 nm) LD90 (P. aeruginosa PAO1 [9]; [11]): 32 µmol/L | MBEC from Calgary Biofilm Device (CBD) LD50 (P. aeruginosa PAO1 [10]): 16 µmol/L | MBEC from Calgary Biofilm Device (CBD) LD90 (P. aeruginosa PAO1 [10]): 64 µmol/L
